The conditions of data set [1]: rat plasma; from FDA pharmacology reviews; cited from earlier work.
The next data set concerns P-gp. Conditions: cited from earlier work.
The test system of data set [2] is breast cancer resistance protein (BCRP). Conditions: cited from earlier work.
In another data set the target is human P-gp (Homo sapiens, UniProt P08183). The class given is in vitro ADME. Conditions: LLC-PK1.
Data set [3] is described as follows: Brain distribution study following i.v. bolus and i.v. infusion in rats. Conditions: rat; for δ brain concentration at SS / δ plasma concentration at SS: difference between the two time points, (SD).
The conditions of data set [4]: cited from earlier work; for Cave,ss, reported clinical concentration: patients, efficacious dose.
A short description of data set [5]: Kinetic lipid membrane binding assay. It counts as in vitro ADME, porcine. To be noted: pig, pH 7.4.
A further data set concerns TRKA/B/C. To be noted: read-out: IC50 against TRKA/B/C; cited from earlier work.
The next data set addresses mouse P-gp (Mus musculus, UniProt P21447). The class given is in vitro ADME. Conditions: LLC-PK1.
Data set [6] can be described thus: Plasma protein binding, rat plasma. It counts as in vitro ADME. To be noted: pH 7.5.
In data set [7] the test system is KM12-Luc intracranial tumor. Briefly: Efficacy in KM12-Luc intracranial tumor xenograft mouse model. It counts as in vivo, athymic nu/nu mice. To be noted: 28 days.
Data set [8] is described as follows: Single oral-dose in vivo PK study of rats. Conditions: rat.
A short description of data set [9]: Plasma protein binding by equilibrium dialysis, mouse plasma. Conditions: pH 7.5. The class given is in vitro ADME.
Another data set has as its system BNN2 and BNN4 gliomas. To be noted: clinically relevant systemic exposures; cited from earlier work.
Data set [10] in a line: Plasma pharmacokinetics in KM12-Luc ITC tumor-bearing mice. It counts as in vivo, Balb/c nude mice. Conditions: for AUC(0-t): Balb/c nude, mouse, in vivo, po.
The nature of data set [11]: Plasma protein binding by equilibrium dialysis, human plasma. It counts as in vitro ADME. To be noted: pH 7.5. Background: In equilibrium dialysis free small molecules cross a membrane that holds back macromolecules.
[12] abbreviates: recommended human oral dose of 600 mg/kg q.d.

A word on the Papp A→B: it is how fast a substance crosses the layer from the apical side. A low value points to slow passage. One may read the Papp B→A as how fast a substance crosses the layer from the basolateral side. Broadly, the efflux ratio is the permeability from basolateral to apical divided by that in the opposite direction, in the common usage. As a reminder, the half-life is the time needed for the level to fall by half in the phase considered. A low value points to fast loss. By fraction unbound is commonly meant free concentration divided by total concentration. A high value points to much free substance. As a reminder, the AUC(0-t) is the area under the concentration-time curve up to a stated or last time point. Lower therefore signals low exposure.

SMILES strings stand for the structures.

mouse P-gp, sequence (P21447 whole entry): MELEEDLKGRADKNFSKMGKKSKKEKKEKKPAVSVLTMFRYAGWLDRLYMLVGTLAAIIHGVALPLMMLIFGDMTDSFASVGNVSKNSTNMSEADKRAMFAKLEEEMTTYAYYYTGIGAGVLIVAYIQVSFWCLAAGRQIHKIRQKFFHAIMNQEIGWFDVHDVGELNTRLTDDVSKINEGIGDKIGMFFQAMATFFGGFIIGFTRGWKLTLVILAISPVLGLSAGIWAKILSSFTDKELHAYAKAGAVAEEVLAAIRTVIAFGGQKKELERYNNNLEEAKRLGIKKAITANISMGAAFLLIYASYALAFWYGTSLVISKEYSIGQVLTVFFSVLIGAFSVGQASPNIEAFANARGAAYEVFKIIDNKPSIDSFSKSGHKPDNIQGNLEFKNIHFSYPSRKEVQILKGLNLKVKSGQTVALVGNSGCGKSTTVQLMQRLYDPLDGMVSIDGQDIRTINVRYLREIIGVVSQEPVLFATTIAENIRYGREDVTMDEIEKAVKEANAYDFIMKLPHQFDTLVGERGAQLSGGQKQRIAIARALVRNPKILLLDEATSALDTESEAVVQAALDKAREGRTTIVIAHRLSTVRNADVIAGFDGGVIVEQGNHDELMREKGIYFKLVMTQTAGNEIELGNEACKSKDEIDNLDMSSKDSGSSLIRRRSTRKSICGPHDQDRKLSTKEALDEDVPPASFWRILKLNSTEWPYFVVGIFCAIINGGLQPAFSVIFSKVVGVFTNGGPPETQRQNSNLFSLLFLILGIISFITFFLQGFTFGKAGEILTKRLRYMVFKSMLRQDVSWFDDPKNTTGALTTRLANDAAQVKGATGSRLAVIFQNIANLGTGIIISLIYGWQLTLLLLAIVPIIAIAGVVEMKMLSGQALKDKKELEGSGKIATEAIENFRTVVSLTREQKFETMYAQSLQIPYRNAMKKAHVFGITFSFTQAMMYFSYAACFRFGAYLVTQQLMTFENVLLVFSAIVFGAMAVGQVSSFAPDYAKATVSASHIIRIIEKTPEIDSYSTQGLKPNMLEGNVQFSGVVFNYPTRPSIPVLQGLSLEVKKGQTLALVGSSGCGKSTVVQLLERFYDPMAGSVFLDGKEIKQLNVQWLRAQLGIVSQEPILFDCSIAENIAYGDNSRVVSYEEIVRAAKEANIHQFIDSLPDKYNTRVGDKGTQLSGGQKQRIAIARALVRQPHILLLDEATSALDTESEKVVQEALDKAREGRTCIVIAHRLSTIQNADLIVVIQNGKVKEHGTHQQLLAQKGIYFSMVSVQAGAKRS
human P-gp, sequence (P08183 whole entry, the tested form may be a part): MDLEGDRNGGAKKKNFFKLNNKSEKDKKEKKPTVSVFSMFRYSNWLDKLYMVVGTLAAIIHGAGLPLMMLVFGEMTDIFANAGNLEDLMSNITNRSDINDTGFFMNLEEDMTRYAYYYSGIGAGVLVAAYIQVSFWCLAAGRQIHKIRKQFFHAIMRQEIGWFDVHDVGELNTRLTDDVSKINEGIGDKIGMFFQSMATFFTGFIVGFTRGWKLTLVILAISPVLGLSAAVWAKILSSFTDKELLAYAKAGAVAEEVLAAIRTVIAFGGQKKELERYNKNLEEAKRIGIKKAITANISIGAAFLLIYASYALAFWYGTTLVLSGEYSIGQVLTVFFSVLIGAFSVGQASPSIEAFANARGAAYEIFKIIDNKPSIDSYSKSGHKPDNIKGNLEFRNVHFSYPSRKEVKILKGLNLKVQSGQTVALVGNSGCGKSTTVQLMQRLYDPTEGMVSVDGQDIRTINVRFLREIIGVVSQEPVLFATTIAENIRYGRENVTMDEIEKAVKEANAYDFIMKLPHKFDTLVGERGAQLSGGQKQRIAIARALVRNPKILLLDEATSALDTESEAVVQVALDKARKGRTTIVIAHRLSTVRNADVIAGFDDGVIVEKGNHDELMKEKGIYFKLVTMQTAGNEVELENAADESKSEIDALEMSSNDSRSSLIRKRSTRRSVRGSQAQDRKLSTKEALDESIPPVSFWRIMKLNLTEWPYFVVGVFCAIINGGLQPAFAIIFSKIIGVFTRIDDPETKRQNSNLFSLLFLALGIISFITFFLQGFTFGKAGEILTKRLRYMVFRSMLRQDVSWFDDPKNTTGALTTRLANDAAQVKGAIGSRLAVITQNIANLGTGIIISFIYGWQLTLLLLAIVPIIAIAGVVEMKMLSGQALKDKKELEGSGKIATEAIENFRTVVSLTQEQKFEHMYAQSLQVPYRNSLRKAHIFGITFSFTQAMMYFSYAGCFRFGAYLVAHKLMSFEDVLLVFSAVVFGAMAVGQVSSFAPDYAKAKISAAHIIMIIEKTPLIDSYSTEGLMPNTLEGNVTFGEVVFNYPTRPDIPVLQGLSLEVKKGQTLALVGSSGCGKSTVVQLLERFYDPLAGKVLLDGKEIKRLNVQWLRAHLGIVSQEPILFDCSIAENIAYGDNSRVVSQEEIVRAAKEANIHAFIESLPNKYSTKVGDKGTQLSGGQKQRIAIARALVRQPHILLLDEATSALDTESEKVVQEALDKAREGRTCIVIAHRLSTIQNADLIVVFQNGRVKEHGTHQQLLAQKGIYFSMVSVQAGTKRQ

`O=C(Nc1cnn2ccc(N3CCC[C@@H]3c3cc(F)ccc3F)nc12)N1CC[C@H](O)C1` [Larotrectinib, larotrectinib]: the Fu in plasma in data set [1] is recorded as 0.349. Besides, the “known substrate for P-gp” value in the data set with P-gp was “known substrates for P-gp”. Besides, the “substrate of breast cancer resistance protein (BCRP)” value in data set [2] is reported as “substrate”. At human P-gp, the apparent permeability from apical to basolateral (Papp A→B) at 3.5 h, 1 µM amounted to 1.85 ×10⁻⁶ cm/s; the Papp B→A at 3.5 h, 1 µM was found to be 18.2 ± 3.7 ×10⁻⁶ cm/s; the efflux ratio at 3.5 h, 1 µM was 10. In data set [3] (male, Sprague Dawley, in vivo), this molecule registered a Kp at 4 h of 0.027 and a Kp at 5 h of 0.031. Besides, in [3], the “δ brain concentration at SS” value was 1.6 (3.74–5.60) nM and the “δ plasma concentration at SS” value is 2 (46.3–82.2) nM. Further, the “Cave,ss, reported clinical concentration” value in data set [4] is reported as 423 nM. Further, the half-life at 10 µM in data set [5] stood at 6.2 min. Moreover, in the data set with TRKA/B/C, the IC50 is 5 to 11 nM. For the same molecule, at mouse P-gp, the Papp A→B at 3.5 h, 1 µM is 0.82 ± 0.07 ×10⁻⁶ cm/s; the Papp B→A at 3.5 h, 1 µM worked out at 16.1 ± 0.7 ×10⁻⁶ cm/s; the efflux ratio at 3.5 h, 1 µM worked out at 20.

For `CN1CCN(c2ccc(C(=O)Nc3n[nH]c4ccc(Cc5cc(F)cc(F)c5)cc34)c(NC3CCOCC3)c2)CC1` [Entrectinib, entrectinib], the results for the fraction unbound at 5 h in [6], in [9] and in data set [11] were 0.0032 ± 0.0009, 0.0034 ± 0.0003 and 0.0022 ± 0.0005, respectively. For the same molecule, the “Survival through day 28” value in data set [7] (1 mg/kg b.i.d. oral) was 0%; in [7] (5 mg/kg b.i.d. oral), 11%; in [7] (10 mg/kg q.d. oral) it was 67%; in [7] (15 mg/kg b.i.d. oral), 100%; in [7] (30 mg/kg q.d. oral), 100%; in [7] (60 mg/kg b.i.d. oral) it was 100%. The Tolerability result in [7] (all dose levels tested (1, 5, 15, 60 mg/kg b.i.d.; 10, 30 mg/kg q.d.)) is listed as “well tolerated”. This molecule also showed a Kp in data set [8] (brain / plasma, po, 20 mg/kg) of 0.185. Moreover, in data set [8] (single oral dose 20 mg/kg, inferior to the LLOQ, data not shown), the “concentration in the CSF” value is on record as below 1 nM. For the same molecule, the Papp A→B at 3.5 h, 1 µM turned out to be 1.35 ± 0.34 ×10⁻⁶ cm/s on human P-gp and 0.99 ± 0.04 ×10⁻⁶ cm/s at mouse P-gp. Besides, the Papp B→A at 3.5 h, 1 µM came to 19.7 ± 0.5 ×10⁻⁶ cm/s at human P-gp and 25.5 ± 1.9 ×10⁻⁶ cm/s on mouse P-gp. In [3] (male, Sprague Dawley, in vivo, Measured CSF/Cu,p ratio, 5 h), the Kp at 5 h came to 0.25. Also, the Kp at 6 h in data set [3] (male, Sprague Dawley, in vivo, Measured CSF/Cu,p ratio, 6 h) turned out to be 0.18. The results for the “δ brain concentration at SS” value in [3] and in data set [3] (listed as entrectinib) were 276 (71.2–186) nM and 276 nM, respectively. Further, the “δ plasma concentration at SS” value is 140 (109–430) nM in [3] and 140 nM in data set [3] (listed as entrectinib). Also, in [4], the “Cave,ss, reported clinical concentration” value is listed as 2000 nM. For the same molecule, the “AUC24h at SS in patients” value in data set [4] (setting [12]) was 48 µM·h. Also, the “estimated average plasma concentration in patients” value in data set [4] (setting [12]) is “approximately 2.0 µM”. Moreover, the “antitumor effect in intracranial NTRK1 fusion-positive glioma model” value in the data set with BNN2 and BNN4 gliomas is “tumor growth inhibition and full survival benefit”. Further, the AUC(0-t) in data set [10] (2 mg/kg/day) is 1.3 µM·h; in data set [10] (10 mg/kg/day), 11.3 µM·h; in data set [10] (30 mg/kg), 24.5 to 54.8 µM·h; in data set [10] (30 mg/kg/day) it was 38.3 µM·h; in [10] (60 mg/kg/day), 45.3 µM·h; in data set [10] (120 mg/kg/day), 99.9 µM·h. Also, the “average plasma concentration (AUC24h/24 hours)” value in data set [10] (oral, daily dose of 30 mg/kg) is on record as ~ 1.6 µM. Also, the half-life at 10 µM in data set [5] turned out to be 9.6 min.

Take `C[C@H]1O[C@@H](O[C@H]2[C@@H](O)C[C@H](O[C@H]3[C@@H](O)C[C@H](O[C@H]4CC[C@@]5(C)[C@H](CC[C@@H]6[C@@H]5C[C@@H](O)[C@]5(C)[C@@H](C7=CC(=O)OC7)CC[C@]65O)C4)O[C@@H]3C)O[C@@H]2C)C[C@H](O)[C@@H]1O` [Digoxin, digoxin]: on human P-gp, the basolateral-to-apical permeability (Papp B→A) at 3.5 h, 1 µM came to 12.1 ± 0.73 ×10⁻⁶ cm/s and the efflux ratio at 3.5 h, 1 µM amounted to 11. In addition, on mouse P-gp, the Papp A→B at 3.5 h, 1 µM turned out to be 1.22 ± 0.1 ×10⁻⁶ cm/s; the Papp B→A at 3.5 h, 1 µM was 12.5 ± 0.28 ×10⁻⁶ cm/s; the efflux ratio at 3.5 h, 1 µM turned out to be 10.

As to `C[C@@H](Oc1cc(-c2cnn(C3CCNCC3)c2)cnc1N)c1c(Cl)ccc(F)c1Cl` [Crizotinib, crizotinib], in data set [1], the Fu in plasma is reported as 0.057. In addition, the “known substrate for P-gp” value in the data set with P-gp is given as “known substrates for P-gp”. For the same molecule, on human P-gp, the apical-to-basolateral permeability (Papp A→B) at 3.5 h, 1 µM is 1.38 ± 0.03 ×10⁻⁶ cm/s and the Papp B→A at 3.5 h, 1 µM worked out at 38.8 ± 1.7 ×10⁻⁶ cm/s. In data set [3] (male, Sprague Dawley, in vivo), this molecule registered a Kp at 5 h of 0.041 and a Kp at 6 h of 0.028. For the same molecule, in [3], the “δ brain concentration at SS” value is 87 (12.1–131) nM and the “δ plasma concentration at SS” value was 12 (47.9–53.7) nM. The “Cave,ss, reported clinical concentration” value in data set [4] is listed as 874 nM. This molecule yielded a half-life at 10 µM in data set [5] of 7.4 min. For the same molecule, on mouse P-gp, the Papp A→B at 3.5 h, 1 µM was determined as 1.2 ± 0.15 ×10⁻⁶ cm/s and the Papp B→A at 3.5 h, 1 µM stood at 34.4 ± 1.68 ×10⁻⁶ cm/s.
